Data: PubChem BioAssay AID2060617 (Molecular Pharmacology Branch, DTP, NCI, 2025)
pIC50: −log10 of the molar value. Values joined by “and” are separate entries in the source; they are usually repeats but may differ in a detail not shown here. Identical values can stand only once.

Tested on: 485368-065-R4-J2-PDC spheroids with HUVEC/MSC, viability
Assay: Anticancer human tumor 485368-065-R4-J2-PDC patient-derived pancreatic carcinoma cell line growth inhibition [CLK]
Details: for viability, T/C: stronger effect = lower value
In short: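 Patient-derived tumor cells grown as complex spheroids with HUVEC endothelial cells and mesenchymal stem cells, treated with drug combinations. Concentrations descend in half-log steps from near clinical Cmax, or from 10 microM if Cmax unknown.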

[1] = curve of first compound, second compound 0.0316 µM
[2] = curve of first compound, second compound 0.1 µM
[3] = curve of first compound, second compound 0.316 µM
[4] = curve of first compound, second compound 1 µM
[5] = curve of first compound, second compound 3.16 µM
[6] = curve of first compound, second compound 10 µM
[7] = second compound 0.0316 µM, first compound 0.000949 µM
[8] = second compound 0.0316 µM, first compound 0.003 µM
[9] = second compound 0.0316 µM, first compound 0.00949 µM
[10] = second compound 0.0316 µM, first compound 0.03 µM
[11] = second compound 0.0316 µM, first compound 0.0949 µM
[12] = second compound 0.0316 µM, first compound 0.3 µM
[13] = second compound 0.1 µM, first compound 0.000949 µM
[14] = second compound 0.1 µM, first compound 0.003 µM
[15] = second compound 0.1 µM, first compound 0.00949 µM
[16] = second compound 0.1 µM, first compound 0.03 µM
[17] = second compound 0.1 µM, first compound 0.0949 µM
[18] = second compound 0.1 µM, first compound 0.3 µM
[19] = second compound 0.316 µM, first compound 0.000949 µM
[20] = second compound 0.316 µM, first compound 0.003 µM
[21] = second compound 0.316 µM, first compound 0.00949 µM
[22] = second compound 0.316 µM, first compound 0.03 µM
[23] = second compound 0.316 µM, first compound 0.0949 µM
[24] = second compound 0.316 µM, first compound 0.3 µM
[25] = second compound 1 µM, first compound 0.000949 µM
[26] = second compound 1 µM, first compound 0.003 µM
[27] = second compound 1 µM, first compound 0.00949 µM
[28] = second compound 1 µM, first compound 0.03 µM
[29] = second compound 1 µM, first compound 0.0949 µM
[30] = second compound 1 µM, first compound 0.3 µM
[31] = second compound 3.16 µM, first compound 0.000949 µM
[32] = second compound 3.16 µM, first compound 0.003 µM
[33] = second compound 3.16 µM, first compound 0.00949 µM
[34] = second compound 3.16 µM, first compound 0.03 µM
[35] = second compound 3.16 µM, first compound 0.0949 µM
[36] = second compound 3.16 µM, first compound 0.3 µM
[37] = second compound 10 µM, first compound 0.000949 µM
[38] = second compound 10 µM, first compound 0.003 µM
[39] = second compound 10 µM, first compound 0.00949 µM
[40] = second compound 10 µM, first compound 0.03 µM
[41] = second compound 10 µM, first compound 0.0949 µM
[42] = second compound 10 µM, first compound 0.3 µM
[43] = second compound 0.0316 µM, first compound 0.0316 µM
[44] = second compound 0.0316 µM, first compound 0.1 µM
[45] = second compound 0.0316 µM, first compound 0.316 µM
[46] = second compound 0.0316 µM, first compound 1 µM
[47] = second compound 0.0316 µM, first compound 3.16 µM
[48] = second compound 0.0316 µM, first compound 10 µM
[49] = second compound 0.1 µM, first compound 0.0316 µM
[50] = second compound 0.1 µM, first compound 0.1 µM
[51] = second compound 0.1 µM, first compound 0.316 µM
[52] = second compound 0.1 µM, first compound 1 µM
[53] = second compound 0.1 µM, first compound 3.16 µM
[54] = second compound 0.1 µM, first compound 10 µM
[55] = second compound 0.316 µM, first compound 0.0316 µM
[56] = second compound 0.316 µM, first compound 0.1 µM
[57] = second compound 0.316 µM, first compound 0.316 µM
[58] = second compound 0.316 µM, first compound 1 µM
[59] = second compound 0.316 µM, first compound 3.16 µM
[60] = second compound 0.316 µM, first compound 10 µM
[61] = second compound 1 µM, first compound 0.0316 µM
[62] = second compound 1 µM, first compound 0.1 µM
[63] = second compound 1 µM, first compound 0.316 µM
[64] = second compound 1 µM, first compound 1 µM
[65] = second compound 1 µM, first compound 3.16 µM
[66] = second compound 1 µM, first compound 10 µM
[67] = second compound 3.16 µM, first compound 0.0316 µM
[68] = second compound 3.16 µM, first compound 0.1 µM
[69] = second compound 3.16 µM, first compound 0.316 µM
[70] = second compound 3.16 µM, first compound 1 µM
[71] = second compound 3.16 µM, first compound 3.16 µM
[72] = second compound 3.16 µM, first compound 10 µM
[73] = second compound 10 µM, first compound 0.0316 µM
[74] = second compound 10 µM, first compound 0.1 µM
[75] = second compound 10 µM, first compound 0.316 µM
[76] = second compound 10 µM, first compound 1 µM
[77] = second compound 10 µM, first compound 3.16 µM
[78] = second compound 10 µM, first compound 10 µM
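Further: spheroids exposed to compounds for seven days.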
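Wherever viability, T/C is given: 100% = DMSO vehicle control wells.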

SMILES: CC(C)CC(NC(=O)C(Cc1ccccc1)NC(=O)c1cnccn1)B(O)O (stereo not given) + CN1CCN(c2cc(C(=O)Nc3cc4cc(-c5cnn(C)c5)ccc4cn3)ccn2)CC1
- pIC50 [1]: 8.16
- pIC50 [2]: 8.21
- pIC50 [3]: 8.63
- pIC50 [4]: > 9.02
- pIC50 [5]: > 9.02
- pIC50 [6]: > 9.02
- viability, T/C [7]: 93.5%
- viability, T/C [8]: 118%
- viability, T/C [9]: 29.8%
- viability, T/C [10]: 14.3%
- viability, T/C [11]: 8.25%
- viability, T/C [12]: 4.1%
- viability, T/C [13]: 102%
- viability, T/C [14]: 92.2%
- viability, T/C [15]: 24.4%
- viability, T/C [16]: 14.3%
- viability, T/C [17]: 7.86%
- viability, T/C [18]: 3.66%
- viability, T/C [19]: 89.5%
- viability, T/C [20]: 39.8%
- viability, T/C [21]: 14.8%
- viability, T/C [22]: 8.49%
- viability, T/C [23]: 4.29%
- viability, T/C [24]: 2.89%
- viability, T/C [25]: 1%
- viability, T/C [26]: 3.72%
- viability, T/C [27]: 2.87%
- viability, T/C [28]: 1.87%
- viability, T/C [29]: 3.57%
- viability, T/C [30]: 3.73%
- viability, T/C [31]: 1.35%
- viability, T/C [32]: 4.02%
- viability, T/C [33]: 3%
- viability, T/C [34]: 3.03%
- viability, T/C [35]: 3.95%
- viability, T/C [36]: 4.37%
- viability, T/C [37]: 1.26%
- viability, T/C [38]: 3.6%
- viability, T/C [39]: 2.94%
- viability, T/C [40]: 1.87%
- viability, T/C [41]: 2.33%
- viability, T/C [42]: 1.8%

SMILES: CCCS(=O)(=O)Nc1ccc(F)c(C(=O)c2c[nH]c3ncc(-c4ccc(Cl)cc4)cc23)c1F + CNC(=O)c1ccc(Nc2nc(OC3CCCC3)c3c(-c4ccc5nc(C)oc5c4)c[nH]c3n2)c(OC)c1
- pIC50 [1]: < 5.00
- pIC50 [2]: < 5.00
- pIC50 [3]: < 5.00
- pIC50 [4]: < 5.00
- pIC50 [5]: < 5.00
- pIC50 [6]: < 5.00
- viability, T/C [43]: 92.6%
- viability, T/C [44]: 95.1%
- viability, T/C [45]: 93.2%
- viability, T/C [46]: 97.5%
- viability, T/C [47]: 91.6%
- viability, T/C [48]: 114%
- viability, T/C [49]: 100%
- viability, T/C [50]: 99.5%
- viability, T/C [51]: 95.9%
- viability, T/C [52]: 90.1%
- viability, T/C [53]: 98.3%
- viability, T/C [54]: 112%
- viability, T/C [55]: 90%
- viability, T/C [56]: 84.8%
- viability, T/C [57]: 87.9%
- viability, T/C [58]: 85.4%
- viability, T/C [59]: 95.9%
- viability, T/C [60]: 104%
- viability, T/C [61]: 83.5%
- viability, T/C [62]: 80.7%
- viability, T/C [63]: 85.7%
- viability, T/C [64]: 78.9%
- viability, T/C [65]: 89.7%
- viability, T/C [66]: 105%
- viability, T/C [67]: 70.7%
- viability, T/C [68]: 75.5%
- viability, T/C [69]: 85.4%
- viability, T/C [70]: 78.9%
- viability, T/C [71]: 95.2%
- viability, T/C [72]: 99.5%
- viability, T/C [73]: 75.7%
- viability, T/C [74]: 73.6%
- viability, T/C [75]: 86.7%
- viability, T/C [76]: 78.9%
- viability, T/C [77]: 90.1%
- viability, T/C [78]: 93.4%

SMILES: CC(C)CC(NC(=O)C(Cc1ccccc1)NC(=O)c1cnccn1)B(O)O (stereo not given) + CNC(=O)c1ccc(Nc2nc(OC3CCCC3)c3c(-c4ccc5nc(C)oc5c4)c[nH]c3n2)c(OC)c1
- pIC50 [1]: 8.14
- pIC50 [2]: 8.14
- pIC50 [3]: 8.14
- pIC50 [4]: 8.17
- pIC50 [5]: 8.25
- pIC50 [6]: 8.31
- viability, T/C [7]: 99.6%
- viability, T/C [8]: 122%
- viability, T/C [9]: 31.1%
- viability, T/C [10]: 16.4%
- viability, T/C [11]: 13.2%
- viability, T/C [12]: 3.24%
- viability, T/C [13]: 95.3%
- viability, T/C [14]: 115%
- viability, T/C [15]: 32.5%
- viability, T/C [16]: 13.6%
- viability, T/C [17]: 11.8%
- viability, T/C [18]: 3.58%
- viability, T/C [19]: 94.3%
- viability, T/C [20]: 112%
- viability, T/C [21]: 33.4%
- viability, T/C [22]: 12.5%
- viability, T/C [23]: 10.1%
- viability, T/C [24]: 3.9%
- viability, T/C [25]: 102%
- viability, T/C [26]: 101%
- viability, T/C [27]: 28%
- viability, T/C [28]: 12.9%
- viability, T/C [29]: 7.65%
- viability, T/C [30]: 1.74%
- viability, T/C [31]: 89.4%
- viability, T/C [32]: 89.7%
- viability, T/C [33]: 17.9%
- viability, T/C [34]: 7.21%
- viability, T/C [35]: 5.69%
- viability, T/C [36]: 2.56%
- viability, T/C [37]: 77.9%
- viability, T/C [38]: 78.2%
- viability, T/C [39]: 12.5%
- viability, T/C [40]: 5.34%
- viability, T/C [41]: 4.07%
- viability, T/C [42]: 1.36%

SMILES: C=C(F)C(=O)N1CCN(c2nc(OCC3CCCN3C)nc3c2CCN(c2cccc4cccc(Cl)c24)C3)CC1CC#N (stereo not given) + CNC(=O)c1ccc(Nc2nc(OC3CCCC3)c3c(-c4ccc5nc(C)oc5c4)c[nH]c3n2)c(OC)c1
- pIC50 [1]: < 5.00
- pIC50 [2]: < 5.00
- pIC50 [3]: < 5.00
- pIC50 [4]: < 5.00
- pIC50 [5]: < 5.00
- pIC50 [6]: 5.12
- viability, T/C [43]: 83.5%
- viability, T/C [44]: 105%
- viability, T/C [45]: 85.8%
- viability, T/C [46]: 101%
- viability, T/C [47]: 115%
- viability, T/C [48]: 99%
- viability, T/C [49]: 98.2%
- viability, T/C [50]: 95.4%
- viability, T/C [51]: 107%
- viability, T/C [52]: 112%
- viability, T/C [53]: 111%
- viability, T/C [54]: 108%
- viability, T/C [55]: 79.8%
- viability, T/C [56]: 80.9%
- viability, T/C [57]: 89.1%
- viability, T/C [58]: 92.9%
- viability, T/C [59]: 82.7%
- viability, T/C [60]: 93.5%
- viability, T/C [61]: 81.9%
- viability, T/C [62]: 79.7%
- viability, T/C [63]: 77.6%
- viability, T/C [64]: 78.5%
- viability, T/C [65]: 94.5%
- viability, T/C [66]: 107%
- viability, T/C [67]: 74.4%
- viability, T/C [68]: 70.2%
- viability, T/C [69]: 76.1%
- viability, T/C [70]: 78.1%
- viability, T/C [71]: 80.9%
- viability, T/C [72]: 90.4%
- viability, T/C [73]: 71.6%
- viability, T/C [74]: 76.4%
- viability, T/C [75]: 76.1%
- viability, T/C [76]: 80%
- viability, T/C [77]: 71.3%
- viability, T/C [78]: 43%

SMILES: COc1cccc2c1C(=O)c1c(O)c3c(c(O)c1C2=O)CC(O)(C(=O)CO)CC3OC1CC(N)C(O)C(C)O1 (stereo not given)
- viability, T/C (compound 0.0316 µM): 98.8% and 100%
- viability, T/C (compound 0.1 µM): 102% and 91.6%
- viability, T/C (compound 0.316 µM): 67.6% and 66.2%
- viability, T/C (compound 1 µM): 35% and 37.2%
- viability, T/C (compound 3.16 µM): 7.33% and 9.65%
- viability, T/C (compound 10 µM): 19.4% and 24.4%
- pIC50 (curve of compound): 6.24 and 6.25
